Data: patent US20110263657A1, “DIARYL UREAS FOR TREATING HEART FAILURE” (BAYER SCHERING PHARMA AKTIENGESELLSCHAFT, priority 2008, published 2011)

Tested on: mouse models of pressure-induced heart failure
Experiment: Pressure-induced heart failure (TAC) in mice, organ weights and hemodynamic measurements
Type: in vivo
Details: banded (TAC) mice, 50 mg/kg/d po for 4 weeks
Procedure: The effects of the compound and drug combinations according to the invention are tested in vivo in mouse models of pressure-induced heart failure.
Methods: Pressure-Induced Heart Failure (TAC)
Surgery: 8 weeks old mice were pre-anesthetized for 2-3 min in an isofluran flooded box and then intubated (tubus of own fabrication).
Mice were placed on the right side on a heating panel and the tubus was connected to a ventilation pump (Mini Vent Type 845, Hugo Sachs Electronic) which allowed the further ventilation of mice with isofluran (1.5%).
Mice were prepared for the surgery: eyes moistened with Bepanthen® salve (pharmaceutical ointment containing dexpanthenol), operation field shaved and disinfected, mice fixated with tape in a right lateral position.
The skin cut was placed ca 2 mm behind the left elbow and was 5 mm length and vertical. Pectoral muscles were separated until ribs. A wound-spreader was placed between the 2nd and the 3rd rib and thymus was visualized. After pushing by side the thymus V. cava, A pulmonalis and Aorta with both carotid branching were viewed. With help from a curved polished vessel catheter a ligation thread was placed around the aorta between both carotid branching. The aorta was constricted to a diameter of 0.6 mm with help from a splint.
By sham operated mice the same procedure was effectuated but the aorta was not constricted.
Before they woke up, mice were given 5 mg/5 ml/kg sc Rimadyl® (Pfizer, Carprofen), wound was cleaned with […] and coated with antibiotic salve (Neomycin® salve) and Bepanthen® salve was removed from the eyes.
After awaking from anesthesia the tubus was taken off and mice were placed in their cages heated with heating panels for at least half an hour.
Mice were divided into 3 groups (n=10-12): • sham operated with vehicle treatment • placebo with vehicle treatment • Sorafenib: 50 mg/kg/d in vehicle
Substances were dissolved in 10% Ethanol, 40% Solutol and 50% water.
Application volumes: 10 ml/kg/d po
Treatment: begin 1 day after surgery for 4 weeks
After 4 weeks of treatment hemodynamic measurement were performed and mice were sacrificed.
Hemodynamic measurements: Mice were pre-anesthetized for 2-3 min in an isofluran flooded box, followed by fixation in an anesthesia mask (continuous flow of 1.5% isofluran by spontaneous breathing of the mouse). Mice were placed on the back on a heating panel.
Throats were shaved and the skin incised on the median line. The right A. carotis was prepared and ligated cranial. A tip-catheter (Millar Micro-Tip-Transducer, 1.0 oder 1.4 French, Firma HSE) was introduced in the right A. carotis and pushed into the left ventricle and fixated. There, pressure of the left ventricle was registered for a few minutes (after reaching a steady state) over the catheter and analyzed by the Millar Chart 5 software. After the measurements blood samples were taken. Finally organs (heart, lung, liver, right kidney) were collected.

CNC(=O)c1cc(Oc2ccc(NC(=O)Nc3ccc(Cl)c(C(F)(F)F)c3)cc2)ccn1 [Sorafenib, 4{4-[3-(4-chloro-3-trifluoromethylphenyl)-ureido]-phenoxy}-pyridine-2-carboxylic acid methyl amide]
Relaxation constant tau, increment: inhibited | Heart weight/body weight ratio (hypertrophy) (compared to sham operated mice): completely inhibited | Left ventricular weight/body weight ratio (hypertrophy) (compared to sham operated mice): completely inhibited | Left ventricular end diastolic pressure, augmentation compared to sham operated mice (p<0.05 compared to placebo): 7% | Left ventricular systolic pressure, augmentation compared to sham operated mice (p<0.05 compared to placebo): 8%
